Assay results reported in patent publication US20240271184A1, “LOW PH COMPOSITION AND METHOD FOR S[…] ACIDS IN BIOLOGICAL SAMPLES” (priority 2021, published 2024).

Assays:
[1] = system: nucleases in saliva samples; type: biochemical, human; settings: for rRNA doublet integrity and RIN in saliva: pH 4.71; for degradation of RNA in saliva samples obtained from nuclease-rich donors: pH 5.2; for rRNA doublet and RIN of spiked RNA in saliva: T2; for RNA stability and RIN as pH decreased: pH 5
[2] = system: nucleases in stool samples; type: biochemical, human; settings: pH 4.7
[3] = system: RNAse activity in saliva samples; assay: Nuclease assay (RNAseAlert) in saliva mixed 1:1 with formulation; type: biochemical, human; settings: ATA 5 mM final; PAAc at pH 4.7; CDTA when ATA was present; saliva 1:1
[4] = Solubility of salts in the present composition; settings: 4% SDS/100 mM CDTA/10 mM ATA/10 mg/mL PAAc

sodium lauroyl sarcosinate [Sarkosyl]
rRNA doublet integrity and RIN in saliva [1]: doublet was degraded and the RIN was significantly reduced

N[C@H]1C(O)O[C@H](COP(=O)(O)O)[C@@H](O)[C@@H]1O (some centres unmarked) [glucosamine 6-phosphate]
degradation of RNA in saliva samples obtained from nuclease-rich donors [1]: Degradation of RNA

O[C@H](CS)[C@H](O)CS (racemic) [dithiothreitol]
degradation of RNA in saliva samples obtained from nuclease-rich donors [1]: Degradation of RNA

O=S(=O)(O)c1cc(O)c2c(O)c(/N=N/c3cccc4ccccc34)c(S(=O)(=O)O)cc2c1 [pontacyl violet 6R]
degradation of RNA in saliva samples obtained from nuclease-rich donors [1]: Degradation of RNA

Cc1ccc(S(=O)(=O)O)cc1.[Na] [sodium p-toluenesulfonate]
degradation of RNA in saliva samples obtained from nuclease-rich donors [1]: Degradation of RNA

O=C(O)CN(CC(=O)O)C1CCCCC1N(CC(=O)O)CC(=O)O (centres unmarked) [CDTA, 1,2-cyclohexanediaminetetraacetic acid]
RIN and rRNA doublet of spiked RNA in stool [2]: RIN values increased and rRNA doublet remained intact | effect on RNAse activity of addition to guanidinium salt-based compositions [3]: minimal effect on RNAse activity

[Cl-].[Na+] [NaCl, sodium chloride]
rRNA doublet and RIN of spiked RNA in saliva [1]: rRNA doublet was intact and the RIN was high

OCCS [β-2-mercaptoethanol]
degradation of RNA in saliva samples obtained from nuclease-rich donors [1]: Degradation of RNA

O=C(O)c1cc(SSc2ccc([N+](=O)[O-])c(C(=O)O)c2)ccc1[N+](=O)[O-] [5,5-dithio-bis-(2-nitrobenzoic acid)]
degradation of RNA in saliva samples obtained from nuclease-rich donors [1]: Degradation of RNA

N#CS.N=C(N)N [GTC, guanidinium thiocyanate]
relative effectiveness for stabilizing RNA at low pH [1]: more effective than GuHCl | RNA stability and RIN as pH decreased [1]: surprising improvement in RNA stability and corresponding increase in RIN

[Cl-].[Li+] [LiCl, lithium chloride]
rRNA doublet and RIN of spiked RNA in saliva [1]: rRNA doublet was intact and the RIN was high

O=C(O[C@@H]1Cc2c(O)cc(O)cc2O[C@@H]1c1cc(O)c(O)c(O)c1)c1cc(O)c(O)c(O)c1 [EGCG, epigallocatechin gallate]
degradation of RNA in saliva samples obtained from nuclease-rich donors [1]: did not prevent degradation of RNA

O=S(=O)([O-])[O-].[Li+].[Li+] [Li2SO4, lithium sulphate]
rRNA doublet and RIN of spiked RNA in saliva [1]: rRNA doublet was intact and the RIN was high

O=C(O)c1cc2cccc([N+](=O)[O-])c2[nH]1 [7-nitroindole-2-carboxylic acid]
degradation of RNA in saliva samples obtained from nuclease-rich donors [1]: Degradation of RNA

[Cl-].[K+] [KCl]
solubility in the present composition [4]: solubility issues

ribonucleoside vanadyl complexes
degradation of RNA in saliva samples obtained from nuclease-rich donors [1]: Degradation of RNA

CCCCCCCCCCCCCCCC[N+](C)(C)C.[Br-] [CTAB, Cetyltrimethylammonium bromide]
rRNA doublet integrity and RIN in saliva [1]: doublet was degraded and the RIN was significantly reduced

Cl.N=C(N)N [GuHCl, guanidinium hydrochloride]
RNA stability and RIN as pH decreased [1]: surprising improvement in RNA stability and corresponding increase in RIN

CCCCCCCCCCCCOS(=O)(=O)[O-].[Na+] [SDS, sodium dodecyl sulfate]
rRNA doublet integrity and RIN in saliva [1]: able to preserve the integrity of rRNA

O=C(O)CCP(CCC(=O)O)CCC(=O)O [tris(2-carboxyethyl)phosphine]
degradation of RNA in saliva samples obtained from nuclease-rich donors [1]: Degradation of RNA

B1: recombinant human placental RNAse inhibitor (protein, UniProt P13489 2-461, looked up)
Ribonuclease inhibitor: SLDIQSLDIQCEELSDARWAELLPLLQQCQVVRLDDCGLTEARCKDISSALRVNPALAELNLRSNELGDVGVHCVLQGLQTPSCKIQKLSLQNCCLTGAGCGVLSSTLRTLPTLQELHLSDNLLGDAGLQLLCEGLLDPQCRLEKLQLEYCSLSAASCEPLASVLRAKPDFKELTVSNNDINEAGVRVLCQGLKDSPCQLEALKLESCGVTSDNCRDLCGIVASKASLRELALGSNKLGDVGMAELCPGLLHPSSRLRTLWIWECGITAKGCGDLCRVLRAKESLKELSLAGNELGDEGARLLCETLLEPGCQLESLWVKSCSFTAACCSHFSSVLAQNRFLLELQISNNRLEDAGVRELCQGLGQPGSVLRVLWLADCDVSDSSCSSLAATLLANHSLRELDLSNNCLGDAGILQLVESVRQPGCLLEQLVLYDIYWSEEMEDRLQALEKDKPSLRVIS
degradation of RNA in saliva samples obtained from nuclease-rich donors [1]: Degradation of RNA
